Assay results taken from patent US7888357B2, “Anti-inflammatory and protein kinase inhibitor compositions and related methods for downregulation of detrimental cellular responses and inhibition of cell death” (Northwestern University, priority 2001, dated 2011).

What was measured:
[1] = molecular target: T1, myosin light chain kinase (MLCK) (Gallus gallus, UniProt P11799); experiment: Reconstituted enzyme assay, MLCK; format: biochemical, chicken; conditions: γ-[32P]-ATP, synthetic peptide substrate; mean ± SEM; read-out: IC50 MLCK
T1 construct: chicken gizzard MLCK prepared as described; from tissue; host or cells: chicken gizzard
T1 sequence (P11799 935-1906): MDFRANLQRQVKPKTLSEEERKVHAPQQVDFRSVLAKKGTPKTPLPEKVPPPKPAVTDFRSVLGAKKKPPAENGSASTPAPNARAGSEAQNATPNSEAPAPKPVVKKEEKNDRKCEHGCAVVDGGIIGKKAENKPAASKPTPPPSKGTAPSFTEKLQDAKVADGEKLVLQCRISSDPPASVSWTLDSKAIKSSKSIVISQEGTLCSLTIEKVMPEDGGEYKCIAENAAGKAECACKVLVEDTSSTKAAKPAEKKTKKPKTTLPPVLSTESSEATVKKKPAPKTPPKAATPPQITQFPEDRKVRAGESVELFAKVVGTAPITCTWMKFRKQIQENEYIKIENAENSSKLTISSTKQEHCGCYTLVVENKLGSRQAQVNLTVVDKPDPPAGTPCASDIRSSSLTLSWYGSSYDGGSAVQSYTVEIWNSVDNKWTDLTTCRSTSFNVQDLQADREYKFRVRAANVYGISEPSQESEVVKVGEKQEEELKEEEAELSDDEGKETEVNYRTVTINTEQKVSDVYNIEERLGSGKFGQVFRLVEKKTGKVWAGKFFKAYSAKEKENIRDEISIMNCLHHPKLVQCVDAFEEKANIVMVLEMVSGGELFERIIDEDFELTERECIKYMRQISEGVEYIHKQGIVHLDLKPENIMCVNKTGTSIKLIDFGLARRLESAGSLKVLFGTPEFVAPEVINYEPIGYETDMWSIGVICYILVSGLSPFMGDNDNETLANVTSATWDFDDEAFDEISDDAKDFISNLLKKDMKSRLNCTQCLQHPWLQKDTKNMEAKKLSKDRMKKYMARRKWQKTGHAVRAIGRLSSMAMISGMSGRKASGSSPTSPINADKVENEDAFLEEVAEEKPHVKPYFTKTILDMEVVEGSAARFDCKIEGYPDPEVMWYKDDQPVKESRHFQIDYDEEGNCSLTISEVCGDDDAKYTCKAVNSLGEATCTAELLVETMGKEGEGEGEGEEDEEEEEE
Experimental: [table] […] The rationale for using BV-2 cells in high throughput screening was the paucity of well-characterized human microglial cell lines, and the relevant activation responses and signaling pathways reflect those seen in human and rodent primary microglial cultures. Compounds were tested for their effects on NO accumulation in conditioned media of LPS-stimulated BV-2 cells by measurement of nitrite production by the Griess assay as a read-out for iNOS activity, as described previously. Stock solutions of compounds were prepared in dimethylsulfoxide (DMSO) or in water. When stock solutions were prepared in DMSO, control wells contained the same final concentration of DMSO as the compound-containing wells. […] Solutions of compounds for cell treatments were diluted to a 10× final concentration by dilution of stock solutions in αMEM media. […] Reconstituted enzyme assays were done as described s. The sources of protein kinases were: bovine heart PKA from Promega, rat brain PKC from Calbiochem, rat CaMKII from New England Biolabs, chicken gizzard MLCK prepared as described, and a p38 MAP kinase kit containing recombinant Xenopus p38-MAPK and its human substrate from Upstate Biotechnology. The catalytic domains of these protein kinases retain a high level of amino acid sequence identity across mammalian species, consistent with the lack of documented major differences across species for the in vitro catalytic activity of a given kinase.

[2] = system: rat astrocytes; experiment: Western blot of glial activation responses in rat astrocyte cultures; format: cell-based; conditions: for GFAP levels: activated rat astrocytes
Experimental: FIG. 2. Selective effects of compound 1 (MW01-070C) on glial activation responses and gene-regulating protein kinase pathways. BV-2 cells and rat astrocytes were treated with control buffer (C) or stimulated with LPS or Aβ1-42 peptide in the presence or absence of compound 1, and cell lysates were analyzed by Western blots. (A) Astrocytes treated with LPS and compound 1 show concentration-dependent inhibition of iNOS and IL-1β production but not GFAP. (B) Astrocytes treated with A β1-42 and compound 1 (10 μM) show inhibition of iNOS and IL-1β but not apoE and COX-2. (C) BV-2 cells treated with LPS and compound 1 (10 μM) show inhibition of phosphorylated (p-) CREB but not p-p38 and p-ATF2, as assayed with antibodies that are specific for the phosphorylated forms of the proteins. Data are expressed as percent control (mean±SD; n=3 determinations).
The rationale for using BV-2 cells in high throughput screening was the paucity of well-characterized human microglial cell lines, and the relevant activation responses and signaling pathways reflect those seen in human and rodent primary microglial cultures. Compounds were tested for their effects on NO accumulation in conditioned media of LPS-stimulated BV-2 cells by measurement of nitrite production by the Griess assay as a read-out for iNOS activity, as described previously. Stock solutions of compounds were prepared in dimethylsulfoxide (DMSO) or in water. When stock solutions were prepared in DMSO, control wells contained the same final concentration of DMSO as the compound-containing wells. […] Solutions of compounds for cell treatments were diluted to a 10× final concentration by dilution of stock solutions in αMEM media. The commercially available drugs tested were: compound 5 (KN93 from Alexis); compound 6 (pyrrolidinedithiocarbamate or PDTC from Sigma), compound 7 (SB203580 from Alexis Corporation), compound 8 (PD98059 from Alexis Corporation), and compound 9 (UO126 from Cell Signaling). SB203580, U0126 and PD98059, PDTC, and KN93 are used as pathway-selective inhibitors of p38 MAPK, MEK1/2, NFκB, and CaMKII signaling pathways. Respectively, Western blots of cell lysates were done with the following antibodies: monoclonal anti-iNOS (1:1000 dilution, Transduction Labs); polyclonal anti-rat IL-1β (1:1000 dilution, R&D Systems, Inc.); monoclonal anti-glial fibrillary acidic protein (GFAP) (1:[…] dilution, Sigma); polyclonal anti-rat alioE (1:15,000 dilution) prepared as described; polyclonal anti-COX-2 (1:500 dilution) and monoclonal anti-phosphoATF2 (1:1000 dilution) from Santa Cruz Biotechnology, polyclonal anti-phosphoCREB (1:1000 dilution), and polyclonal anti-phosphop38 MAPK (1:1000 dilution). Reconstituted enzyme assays were done as described s. The sources of protein kinases were: bovine heart PKA from Promega, rat brain PKC from Calbiochem, rat CaMKII from New England Biolabs, chicken gizzard MLCK prepared as described, and a p38 MAP kinase kit containing recombinant Xenopus p38-MAPK and its human substrate from Upstate Biotechnology. The catalytic domains of these protein kinases retain a high level of amino acid sequence identity across mammalian species, consistent with the lack of documented major differences across species for the in vitro catalytic activity of a given kinase.
FIG. 5. Effects of two compounds on LPS-stimulated INOS and IL-1β production in rat astrocyte cultures. Astrocyte cultures were incubated for 24 hr with control buffer (C), LPS (100 ng/ml) alone, or LPS in the presence of increasing concentrations (0.1, 0.3, 1, 3, 10 μM) of MW01-070C (panel A) or MW01-196A (panel B). The levels of iNOS, proIL-1β, and GFAP were determined by Western blot of cell lysates.
FIG. 6. Effects of MW01-070C on astrocytes treated with various activating stimuli, and analysis of multiple activation responses. Astrocyte cultures were stimulated for 12 hr with Aβ (10 μM), S100B (0.5 μM), or LPS (100 ng/ml) in the absence (−) or presence (+) of MW01-070C (10 μM). […]

[3] = LPS-stimulated rat astrocytes, 24 hr, Western blot
[4] = LPS-stimulated rat astrocytes, 24 hr, Western blot, listed as 1
[5] = activated astrocytes, compound 10 μM
[6] = astrocytes stimulated by S100 (0.5 μM), 12 hr, compound 10 μM
[7] = glia stimulated by Aβ1-42, compound 10 μM

N=c1cc2c(nn1CCCCCCCCCCC(=O)N1CCN(c3ncccn3)CC1)-c1ccccc1CC2 [MW01-070C]
IC50 [1]: > 100 µM
IL-1β production [2, 3]: dose dependent inhibition
iNOS production [2, 3]: dose dependent inhibition
IL-1β production [2, 4]: inhibits
iNOS production [2, 4]: inhibits
COX-2 levels [2, 5]: no effect
apoE production [2, 5]: no effect
GFAP levels ([2]; Western blot): no change
GFAP levels ([2]; Western blot, listed as 1): not changed
IL-1β production [2, 6]: inhibits
iNOS production [2, 6]: inhibits
IL-1β production [2, 7]: inhibits
iNOS production [2, 7]: inhibits
